Columns and labels:
[1] = tested on: primary rat neuronal-glial cell cultures; assay: Seahorse assay (OCR/ECAR), acute 1 h nutrient pre-incubation, resting or seizure-like conditions; format: cell-based; settings: 1 mM citrate
Description: A Seahorse assay was performed on primary rat neuronal-glial cell cultures to determine the impact of pyruvate and citric acid on glycolytic rates and lactate delivery, mitochondrial respiration and total (glycolytic and mitochondrial) ATP production.
Rat cortical cells were isolated from embryonic day 18 embryos using a combination of enzymatic and mechanical dissociation of brain cortical rat tissue. Immediately after dissociation, the cells were seeded at a density of 500′000 cells per mL in 96-well plates and grown at 37° C. for two weeks from day in vitro (DIV) 0 until DIV14 in Neurobasal medium supplemented with 2% (v/v) B27, 0.8 mM Magnesium (Mg2+), 25 mM glucose and 1% (v/v) Penicillin/Streptomycin. During this time neuronal axons grew out and formed synaptic contacts. In addition, glial cells, foremost astrocytes, grew and formed contacts with neurons. The incubation in 25 mM glucose accelerated the differentiation and network growth of neurons.
From DIV14 until DIV17, the cells were incubated in Neurobasal medium supplemented with 2% (v/v) B27, 0.8 mM Mg2+, 5 mM glucose and 1% (v/v) Penicillin/Streptomycin. The switch from high to low glucose was done to approach the low intracerebral glucose concentration of the human brain and create a more physiological metabolic environment.
The switch from 5 mM to 1 mM glucose matched the glucose concentrations in the human brain. Meanwhile the switch from high (0.8 mM) to low (0.1 mM) Mg^2+ increases the electrical firing frequency of neurons because Mg2+ is an inhibitor of excitatory NMDA-type ionotropic glutamate receptors, which account for most of the neuronal firing in this cell culture model. The increase in neuronal firing caused by incubation in 0.1 mM Mg^2+ increases the energy production of neurons and glial cells as reflected in the increase in basal respiration (FIG. 1B and E). After 1 hour of pre-incubation in the Seahorse medium containing the nutrients, the oxygen consumption rate [OCRs] and extracellular acidification rate [ECARs] of the neuroglial culture were measured in the Seahorse assay.
(§1) The oxygen consumption rates (OCRs) and extracellular acidification rates (ECARs) of cells seeded in 96-well plates were monitored in real time at 37° C. in unbuffered Hanks Balanced Salt Solution (HBSS). The OCRs represent foremost mitochondrial respiration, and to a minor extent non-mitochondrial respiration. The ECARs relate foremost to the acidification of the medium with lactate produced through glycolysis and secreted by the cells into the medium (Table 1).
(§2) During the Seahorse run, both the OCRs and ECARs were measured simultaneously at baseline and following the injection of compounds by the Seahorse instrument (Table 1). HBSS was supplemented with glucose from the start and no glucose was injected through the Seahorse instruments. Measurements were repeated three times at baseline and three times after each compound injection.
(§3) After the initial baseline measurement, oligomycin (OM) was injected. OM blocks mitochondrial ATP synthase (complex V) and therefore decreases mitochondrial respiration. The OCRs after OM injection are due to the mitochondrial proton leak. They enable to determine whether the test nutrients impact the proton leak. The difference in OCRs at baseline and after OM injection is the amount of oxygen used for mitochondrial ATP synthesis at baseline. From this difference in OCR, the mitochondrial ATP production rates are calculated.
After OM, uncoupling agent carbonyl cyanide-p- trifluoromethoxyphenyl-hydrazon [FCCP] was injected which collapses the proton gradient across the inner mitochondrial membrane established during respiration and required for ATP synthesis. The cells attempt to restore the proton gradient following FCCP injection by maximizing respiration. […]

neuroglial cell cultures = assay: Seahorse assay (OCR/ECAR), 24-hour incubation with citrate under resting conditions; format: cell-based, rat; settings: 0.8 mM Mg2+, vs control medium; for increase in basal glycolytic rates: FIG. 5A; for increase in OM-induced increase in glycolytic rates: FIG. 5B; for increase in FCCP-induced maximal glycolytic capacity: FIG. 5C
Description: as §1, §2, §3
After OM, uncoupling agent carbonyl cyanide-p- trifluoromethoxyphenyl-hydrazon [FCCP] was injected which collapses the proton gradient across the inner mitochondrial membrane established during respiration and required for ATP synthesis. The cells attempt to restore the proton gradient following FCCP injection by maximizing respiration. The OCRs measured after FCCP injection therefore represent the maximal respiratory capacity of the mitochondria in the sample and enable to determine whether test nutrients impact the maximal respiratory capacity of the mitochondria.
Finally, Antimycin A, a complex III inhibitor, and Rotenone, a complex I inhibitor, were co-injected, both blocking the respiratory chain at different sites to entirely shut down mitochondrial respiration and determine the non-mitochondrial respiration. The latter is necessary to correct all OCRs and obtain the mitochondrial OCRs.
The ECARs were measured simultaneously at baseline and after OM and FCCP injection. The glycolytic ATP production was calculated from the baseline ECARs. The subsequent injection of OM pushed the cells to maximize their glycolytic ATP production to compensate for the loss in mitochondrial ATP production inflicted by OM. The further addition of FCCP drove mitochondrial respiration to a maximum and this eventually led to a further increase in glycolytic rates providing pyruvate into the TCA cycle to sustain maximal respiration. Therefore, the ECARs after FCCP injection were used to determine the maximum glycolytic capacity of the cells.
Further, the effects of a 24-hour incubation with citrate on glycolysis, mitochondrial respiration and total (glycolytic and mitochondrial) energy (ATP) production under resting conditions was assessed. Neuroglial cell cultures were grown in Neurobasal medium (NBM) supplemented with B27, high (25 mM) glucose, and high (0.8 mM) Mg2+ from DIV0 until DIV14. They were switched to NBM supplemented with B27, low (5 mM) glucose, and high (0.8 mM) Mg^2+ from DIV14 until DIV16. On DIV16, the medium was exchanged for DMEM (which is, in contrast to HBSS, not a nutrient-deprived medium) containing low (5 mM) glucose, high (0.8 mM) Mg^2+ and 500 μM or 1 mM citrate. On DIV17, one hour prior to the Seahorse run, the medium was replaced with unbuffered DMEM containing low (5 mM) glucose, high (0.8 mM) Mg^2+ and 500 μM or 1 mM citrate. The cells were left in this medium until the end of the run. Five repeats per condition were done.

[2] = tested on: primary rat neuronal-glial cell cultures; assay: Seahorse assay (OCR/ECAR), acute 1 h nutrient pre-incubation, resting or seizure-like conditions; format: cell-based; settings: for increase in OM-induced glycolytic rates (tended): FIG. 3D
[3] = tested on: Phosphofructokinase 1 (PFK1); settings: tissue- and brain-specific isoforms; cited from earlier work

O=C(O)CC(O)(CC(=O)O)C(=O)O [citrate]
increase in total (mitochondrial and glycolytic) ATP production ([1]; 0.1 mM Mg2+ control medium, FIG. 3A): ~60%
increase in basal mitochondrial respiration ([1]; 0.1 mM Mg2+ control medium, FIG. 3B): ~40%
increase in basal glycolytic rates ([1]; 0.1 mM Mg2+ medium, FIG. 3C): ~20%
increase in basal mitochondrial respiration (neuroglial cell cultures; 500 μM and 1 mM citrate, FIG. 4B): ~60%
increase in FCCP-induced maximal mitochondrial respiratory capacity (neuroglial cell cultures; 500 μM and 1 mM citrate, FIG. 4C): 60-70%
increase in basal mitochondrial and glycolytic ATP production (neuroglial cell cultures; 500 μM and 1 mM citrate, DMEM 5 mM glucose, FIG. 4A): ~45%
increase in basal glycolytic rates (neuroglial cell cultures; 500 μM citrate): ~45%
increase in OM-induced increase in glycolytic rates (neuroglial cell cultures; 500 μM citrate): ~70%
increase in FCCP-induced maximal glycolytic capacity (neuroglial cell cultures; 500 μM citrate): ~75%
increase in basal glycolytic rates (neuroglial cell cultures; 1 mM citrate): ~20%
increase in OM-induced increase in glycolytic rates (neuroglial cell cultures; 1 mM citrate): ~30%
increase in FCCP-induced maximal glycolytic capacity (neuroglial cell cultures; 1 mM citrate): ~50%
increase in OM-induced glycolytic rates (tended) ([2]; 1 mM citrate, 0.1 mM Mg2+ medium): ~15%
increase in total (mitochondrial and glycolytic) ATP production ([2]; 1 mM citrate, 0.8 mM Mg2+ control medium, FIG. 3A): ~75%
increase in basal mitochondrial respiration ([2]; 1 mM citrate, 0.8 mM Mg2+ control medium, FIG. 3B): ~100%
increase in FCCP-driven maximal glycolytic capacity (tended) ([2]; 1 mM citrate, 0.8 mM Mg2+ control medium, FIG. 3E): ~35%
increase in basal glycolytic rates ([2]; 1 mM citrate, 0.8 mM Mg2+ medium, FIG. 3C): ~70%
increase in OM-induced glycolytic rates (tended) ([2]; 1 mM citrate, 0.8 mM Mg2+ medium): ~60%
increase in mitochondrial oxygen consumption rates (OCR) at baseline ([2]; resting, high Mg2+ medium (DMEM, 5 mM glucose), dose-dependent, vs control medium without citrate, FIG. 1E): ≤ 25%
increase in OM-induced proton leak ([2]; resting, high Mg2+ medium (DMEM, 5 mM glucose), vs control medium without citrate, FIG. 1F): ≤ 10%
effect on FCCP-driven maximal respiratory capacity ([2]; resting, high Mg2+ medium (DMEM, 5 mM glucose), vs control medium without citrate, FIG. 1G): not significantly impacting
increase in OM- and FCCP-induced maximal glycolytic capacity ([2]; resting, high Mg2+ medium, 0.25 mM citrate, FIG. 2E, F): 10-15%
increase in basal glycolytic rates and lactate secretion ([2]; resting, high Mg2+ medium, acute, dose-dependent, FIG. 2D): ~25%
concentrations at which PFK1 isoforms are inhibited [3]: above 100 μM

Source: patent publication US20240415793A1, “Neuroprotective composition comprising pyruvate and citrate” (N.V. Nutricia, priority 2022, published 2024)
